Read-outs that look alike come from different tables or passages of the source.
What was measured:
[1] = biological target: HIV reverse transcriptase (HIV-RT) (Human immunodeficiency virus type 1 group M subtype B, UniProt P04585); details: cited from earlier work
[2] = XTT based cytotoxicity assay, MT2; details: human, MT2 T-cell line, MT2 cells
Method: The XTT (2,3-bis(2-methoxy-4-nitro-5-sulfoxyphenyl)-5[(phenylamino)carbonyl]-2H-tetrazolium hydroxide) assay is an in vitro colorimetric cyto-protection assay. Reduction of XTT by mitochondria dehydrogenases results in the cleavage of the tetrazolium ring of XTT, yielding orange formazan crystals, which are soluble in aqueous solution. The resultant orange solution was read in a spectrophotometer at a wavelength of 450nm. […] Cells were added to the plat at 3×10^4/well (MTX) and 2×10^5/well (PBMC) and the plates were incubated for 5 days at 37° C. in a 5% CO2 incubator (addition of the cells to the plate diluted the compound to a final high concentration of 1 mM). At the end of the 5-day incubation, XTT was added to each well and incubated at 37° C. for 3 hours followed by the addition of acidified isopropanol. The plate was read at 450 nm in a 96 well plate reader. A dose response curve was generated using the absorption values of cells grown in the absence of compound as 100% protection.
MPA was tested for cytotoxicity on the laboratory adapted T-cell line MT2 and in PBMCs using a XTT based assay. […] The resultant orange solution is read in a spectrophotometer at a wavelength of 450nm. […] The plate was read at 450 nm in a 96 well plate reader. […]

[3] = XTT based cytotoxicity assay, PBMC; format: cell-based; details: human, PBMCs
Method: The XTT (2,3-bis(2-methoxy-4-nitro-5-sulfoxyphenyl)-5[(phenylamino)carbonyl]-2H-tetrazolium hydroxide) assay is an in vitro colorimetric cyto-protection assay. Reduction of XTT by mitochondria dehydrogenases results in the cleavage of the tetrazolium ring of XTT, yielding orange formazan crystals, which are soluble in aqueous solution. […] Cells were added to the plat at 3×10^4/well (MTX) and 2×10^5/well (PBMC) and the plates were incubated for 5 days at 37° C. in a 5% CO2 incubator (addition of the cells to the plate diluted the compound to a final high concentration of 1 mM). At the end of the 5-day incubation, XTT was added to each well and incubated at 37° C. for 3 hours followed by the addition of acidified isopropanol. The plate was read at 450 nm in a 96 well plate reader. A dose response curve was generated using the absorption values of cells grown in the absence of compound as 100% protection.
The XTT (2,3-bis(2-methoxy-4-nitro-5-sulfophenyl)-5[(phenylamino)carbonyl]-2H-tetrazolium hydroxide) assay is an in vitro colorimetric cyto-protection assay. Reduction of XTT by mitochondria dehydrogenases results in the cleavage of the tetrazolium ring of XTT, yielding orange formazan crystals, which are soluble in aqueous solution. […] The plate was read at 450 nm in a 96 well plate reader. […]

xxLAI strain of HIV-1 [4] = experiment: microbe, parasite or virus in culture; format: cell-based; details: compound alone, any of the concentrations tested (RBV up to 100 μM, MPA up to 1 μM)
Method: Triplicate samples of compound were tested. MT2 cells were infected with xxLAI at a multiplicity of infection (MOI) of 0.03 for 3 hours at 37° C. in 5% CO2. The infected cells were plated at 3.0×10^4/well into a 96 well plated containing drug dilutions and incubated for 5 days at 37° C. in CO2. […] This method has been modified into a susceptibility assay and has been used in a variety of in vitro antiviral tests and is readily adaptable to any system with a lytic virus (Weislow, O. S., et. al. 1989). Using the absorption values of the cell controls as 100% protection and no drug, virus infected cells as 0% protection, a dose response curve is generated by plotting % protection on the Y axis and drug concentration on the X axis. From this curve EC50 values were determined.
Assays were performed in the MT2 cell line as described above in the XXT sensitivity assay section.
MPA was tested for activity against the xxLAI strain of HIV-1 in the laboratory adapted cell line MT2. Dilutions of MPA were made in cell culture media in a 96 well plate; the highest concentration tested was 1 μM. Triplicate samples of compound were tested. MT2 cells were infected with xxLAI at a multiplicity of infection (MOI) of 0.03 for 3 hours at 37° C. in 5% CO2. The infected cells were plated at 3.0×10^4/well into a 96 well plated containing drug dilutions and incubated for 5 days at 37° C. in CO2. The antiviral activity of MPA was determined using the XTT assay described above. This method has been modified into a susceptibility assay and has been used in a variety of in vitro antiviral tests and is readily adaptable to any system with a lytic virus (Weislow, O. S., et. al. 1989). Using the absorption values of the cell controls as 100% protection and no drug, virus infected cells as 0% protection, a dose response curve is generated by plotting % protection on the Y axis and drug concentration on the X axis. From this curve EC50 values were determined.
The concentrations of MPA used were 1, 0.5, 0.25, 0.1, and 0.01 μM. Assays were performed in the MT2 cell line as described in section 3.1.

xxLAI strain of HIV-1 [5] = experiment: microbe, parasite or virus in culture; format: cell-based; details: Human immunodeficiency virus 1, PBMC, 72 h
Method: In this assay, cell supernatants were incubated on microelisa wells coated with antibodies to HIV-1 p24 core antigen. Subsequently, anti-HIV-1 conjugate labeled with horseradish peroxidase was added. The labeled antibody bound to the solid phase antibody/antigen complexes previously formed. Addition of the tetramethylbenzidine substrate results in blue color formation. The color turned yellow when the reaction is stopped. The plates were then analyzed on a plate reader set at 490 nm. The absorbance is a direct measurement of the amount of HIV-1 produced in each well and a decrease in color indicates decreased viral production. […] PBMC were obtained from HIV-1 negative donors by banding on Ficoll gradients, stimulated with phytohemaglutinin (PHAP) for 48 hours prior to infection with HIV-1, and infected with virus for 4 hours at 37° C. at a MOI of 0.001. […] Plates were incubated for 3 days at 37° C. The concentration of virus in each well was determined using the NEN p24 assay. Using the absorption values of the cell controls as 100% protection and drug free, virus infected cells as 0% protection, a dose response curve is generated by plotting percent protection on the Y axis and drug concentration on the X axis. From this curve, EC50 values were determined.
Compound dilutions and assay conditions were as described above.
MPA was also tested for activity against the xxLAI strain of HIV-1 in PBMCs using a p24 based Elisa assay. In this assay, cell supernatants are incubated on microelisa wells coated with antibodies to HIV-1 p24 core antigen. Subsequently, anti-HIV-1 conjugate labeled with horse radish peroxidase is added. The labeled antibody binds to the solid phase antibody/antigen complexes previously formed. Addition of the tetramethylbenzidine substrate results in blue color formation. The color turns yellow when the reaction is stopped. The plates are then analyzed on a plate reader set at 490 nm. The absorbance is a direct measurement of the amount of HIV-1 produced in each well and a decrease in color indicates decreased viral production. Dilutions of MPA were made in cell culture media in a 96 well plate, the highest concentration of MPA tested was 1 μM. PBMC were obtained from HIV-1 negative donors by banding on Ficoll gradients, stimulated with phytohemaglutinin (PHAP) for 48 hours prior to infection with HIV-1, and infected with virus for 4 hours at 37° C. at a MOI of 0.001. Infected cells were seeded into 96 well plates containing 4-fold serial dilutions of MPA. Plates were incubated for 3 days at 37° C. The concentration of virus in each well was determined using the NEN p24 assay. Using the absorption values of the cell controls as 100% protection and drug free, virus infected cells as 0% protection, a dose response curve is generated by plotting % protection on the Y axis and drug concentration on the X axis. From this curve EC50 values were determined.
Compound dilutions and assay conditions were as described above. The concentrations of MPA used were 1, 0.5, 0.25, 0.1, and 0.01 μM.

HCV = details: ribavirin alone; cited from earlier work
[6] = read-out: EC50, HIV-1 replication in PBMCs, compound alone, p24, 3 days

SMILES	Ki [1]	CC50 at 5 days [2]	CC50 at 5 days [3]	activity against HIV-1 in MT2 cells (xxLAI strain of HIV-1 [4])	EC50 (xxLAI strain of HIV-1 [5]; [6])	EC50 (xxLAI strain of HIV-1 [5]; read-out: median EC50, HIV-1 replication in PBMCs, compound alone, p24, 3 days)	effect on serum levels of HCV-RNA (HCV)	patients with serum amino transferase levels reduced to normal (HCV)
Nc1nc2c(ncn2C2COC(COP(=O)(O)OP(=O)(O)OP(=O)(O)O)O2)c(=O)[nH]1 (stereo not drawn) [DXG-TP]	0.019 µM	–	–	–	–	–	–	–
COc1c(C)c2c(c(O)c1C/C=C(\C)CCC(=O)O)C(=O)OC2 [MPA, 6-(4-hydroxy-6-methoxy-7-methyl-3-oxo-5-phthalanyl)-4-methyl-4-hexanoic acid]	–	5.7 µM	4.5 µM	not active	0.095 µM	0.095 µM	–	–
NC(=O)c1ncn([C@@H]2O[C@H](CO)[C@@H](O)[C@H]2O)n1 [RBV, 1-β-D-ribofuranosyl-1,2,4-triazole-3-carboxamide]	–	> 1000 µM	> 1000 µM	not active	20.5 µM	–	does not lower	40%

Source: patent US20020173491A1, “DAPD combination therapy with inosine monophosphate dehydrogenase inhibitor” (priority 2000, published 2002)
